This assay concerns the target T1, human GLP-1 receptor (Homo sapiens, UniProt P43220).
T1 construct: expressed in transfected cells
The assay can be described thus: GLP-1R cAMP Assay. Type of assay: cell-based. The note with it: cAMP accumulation in CHO cells stably overexpressing the human GLP-1 receptor; 30 min treatment; HitHunter cAMP kit; read-out: EC50. The gist of the method: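 CHO cells stably overexpressing human GLP-1R, 10,000 cells/well, treated with compound in 20-point dose response in triplicate for 30 min. cAMP accumulation read by enzyme-complementation luminescence after lysis and overnight incubation; dose-response curves fitted.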
A general note: Cyclic AMP is a second messenger, typically raised through Gs and lowered through Gi signalling.

T1 sequence (P43220 24-463): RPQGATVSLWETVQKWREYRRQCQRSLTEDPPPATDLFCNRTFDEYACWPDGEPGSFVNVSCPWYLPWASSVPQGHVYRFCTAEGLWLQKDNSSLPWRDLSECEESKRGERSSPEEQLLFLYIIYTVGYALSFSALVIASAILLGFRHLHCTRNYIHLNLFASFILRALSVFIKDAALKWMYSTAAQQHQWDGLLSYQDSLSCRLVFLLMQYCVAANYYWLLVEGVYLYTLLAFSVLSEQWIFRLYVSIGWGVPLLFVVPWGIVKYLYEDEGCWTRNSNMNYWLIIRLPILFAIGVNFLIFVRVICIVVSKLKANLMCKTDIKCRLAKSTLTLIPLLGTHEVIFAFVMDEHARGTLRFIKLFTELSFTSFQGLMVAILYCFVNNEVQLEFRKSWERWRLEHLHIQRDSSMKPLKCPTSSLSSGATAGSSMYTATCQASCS

As usually defined, the EC50 is the concentration at which the effect is half-maximal. For the compound `O=C(O)c1ccc2nc(CN3CCC(Oc4cccc(COc5ccc(Cl)cc5Cl)c4)CC3)n(C[C@@H]3CCO3)c2c1` [Compound 174, 2-[(4-{3-[(2,4-dichlorophenoxy)methyl]phenoxy}piperidin-1-yl)methyl]-1-{[(2S)-oxetan-2-yl]methyl}-1H-1,3-benzodiazole-6-carboxylic acid], the concentration giving a half-maximal response (EC50) is less than 50 nM.
Turning to `CCn1cncc1Cn1c(CN2CCC(Cc3cc(F)cc(COc4ccc(Cl)cc4Cl)c3)CC2)nc2ccc(C(=O)O)cc21` [Compound 133, 2-{[4-({3-[(2,4-dichlorophenoxy)methyl]-5-fluorophenyl}methyl)piperidin-1-yl]methyl}-1-[(1-ethyl-1H-imidazol-5-yl)methyl]-1H-1,3-benzodiazole-6-carboxylic acid], the EC50 was less than 50 nM.
As for `C[C@H]1C[C@@H](Oc2ccnc(COc3ccc(C(F)(F)F)cc3F)n2)CCN1Cc1nc2ccc(C(=O)O)nc2n1C[C@@H]1CCO1` [Compound 377], the EC50 was less than 50 nM.
Consider `O=C(O)c1ccc2nc(CN3CCC(Oc4ccnc(COc5ccc(F)cc5C(F)(F)F)c4)CC3)n(C[C@@H]3CCO3)c2c1` [Compound 322], for which the concentration for a half-maximal effect (EC50) is less than 50 nM.
The value for `CCn1cncc1Cn1c(CN2CCC(C(O)c3cccc(COc4ccc(C)cc4Cl)c3)CC2)nc2ccc(C(=O)O)cc21` (racemic) [Example 130, 2-((4-((3-((2-Chloro-4-methylphenoxy)methyl)phenyl)(hydroxy)methyl)piperidin-1-yl)methyl)-1-((1-ethyl-1H-imidazol-5-yl)methyl)-1H-benzo[d]imidazole-6-carboxylic acid] was less than 50 nM.
For the compound `O=C(O)c1cc(F)c2nc(CN3CCC(Oc4ccnc(COc5ccc(C(F)F)cc5F)c4)CC3)n(C[C@@H]3CCO3)c2c1` [Compound 302], the EC50 was less than 50 nM.
Then `Cc1ccc(N(C)c2cccc(S(=O)(=O)N3CCN(Cc4nc5ccc(C(=O)O)cc5n4C[C@@H]4CCO4)CC3)c2)c(Cl)c1` [Compound 86, 2-[(4-{3-[(2-chloro-4-methylphenyl)(methyl)amino]benzenesulfonyl}piperazin-1-yl)methyl]-1-{[(2S)-oxetan-2-yl]methyl}-1H-1,3-benzodiazole-6-carboxylic acid], with greater than 500 nM; and `Cc1ccc(Nc2cccc(C(=O)N3CCN(Cc4nc5ccc(C(=O)O)cc5n4C[C@@H]4CCO4)CC3)c2)cc1` [Compound 25, 2-[(4-{3-[(4-methylphenyl)amino]benzoyl}piperazin-1-yl)methyl]-1-{[(2S)-oxetan-2-yl]methyl}-1H-1,3-benzodiazole-6-carboxylic acid], with greater than 500 nM.
As for `N#Cc1cc(F)c(F)cc1OCc1nccc(OC2CCN(Cc3nc4c(F)cc(C(=O)O)cc4n3C[C@@H]3CCO3)CC2)n1` [Compound 505, 2-{[4-({2-[(2-cyano-4,5-difluorophenoxy)methyl]pyrimidin-4-yl}oxy)piperidin-1-yl]methyl}-4-fluoro-1-{[(2S)-oxetan-2-yl]methyl}-1H-1,3-benzodiazole-6-carboxylic acid], the 50% effective concentration (EC50) is less than 50 nM.
For `CCn1cncc1Cn1c(CN2CCN(C(=O)c3cnc(COc4ccc(Cl)cc4Cl)o3)C[C@@H]2C)nc2ccc(C(=O)O)cc21` [Compound 256, 2-{[(2S)-4-{2-[(2,4-dichlorophenoxy)methyl]-1,3-oxazole-5-carbonyl}-2-methylpiperazin-1-yl]methyl}-1-[(1-ethyl-1H-imidazol-5-yl)methyl]-1H-1,3-benzodiazole-6-carboxylic acid], the 50% effective concentration (EC50) is less than 50 nM.
As for `O=C(O)c1ccc2nc(CN3CCC(Oc4ccnc(COc5ccc(Cl)cc5Cl)c4)CC3)n(CC3CNC3)c2c1` [Compound 280, 1-[(azetidin-3-yl)methyl]-2-{[4-({2-[(2,4-dichlorophenoxy)methyl]pyridin-4-yl}oxy)piperidin-1-yl]methyl}-1H-1,3-benzodiazole-6-carboxylic acid], the EC50 was less than 50 nM.
Consider `O=C(O)c1ccc2nc(CN3CCN(C(=O)c4cccc(Oc5cc(Cl)ccc5Cl)c4)CC3)n(C[C@@H]3CCO3)c2c1` [Compound 11, 2-({4-[3-(2,5-dichlorophenoxy)benzoyl]piperazin-1-yl}methyl)-1-{[(2S)-oxetan-2-yl]methyl}-1H-1,3-benzodiazole-6-carboxylic acid], for which the concentration for a half-maximal effect (EC50) was greater than 500 nM.
With `CCn1cncc1Cn1c(CN2CCC(Cc3cc(COc4ccc(Cl)cc4Cl)ccc3F)CC2)nc2ccc(C(=O)O)cc21` [Compound 137, 2-{[4-({5-[(2,4-dichlorophenoxy)methyl]-2-fluorophenyl}methyl)piperidin-1-yl]methyl}-1-[(1-ethyl-1H-imidazol-5-yl)methyl]-1H-1,3-benzodiazole-6-carboxylic acid], the EC50 is less than 50 nM.
In the case of `O=C(O)c1ccc2nc(CN3CCC(Oc4ccnc(COc5ccc(C6CC6)cc5F)n4)CC3)n(C[C@@H]3CCO3)c2c1` [Compound 475, 2-{[4-({2-[(4-cyclopropyl-2-fluorophenoxy)methyl]pyrimidin-4-yl}oxy)piperidin-1-yl]methyl}-1-{[(2S)-oxetan-2-yl]methyl}-1H-1,3-benzodiazole-6-carboxylic acid], the EC50 is less than 50 nM.
`N#Cc1ccc(OCc2nccc(OC3CCN(Cc4nc5ccc(C(=O)O)cc5n4CC4(CF)CC4)CC3)n2)c(F)c1` [Compound 343]: the half-maximal effective concentration (EC50) is less than 50 nM.
As for `O=C(O)c1ccc2nc(CN3CCC(Oc4ccnc(COc5ccc(Cl)cc5Cl)c4)CC3)n(Cc3ccno3)c2c1` [Compound 257, 2-{[4-({2-[(2,4-dichlorophenoxy)methyl]pyridin-4-yl}oxy)piperidin-1-yl]methyl}-1-[(1,2-oxazol-5-yl)methyl]-1H-1,3-benzodiazole-6-carboxylic acid], the concentration giving a half-maximal response (EC50) is less than 50 nM.
Regarding `O=C(O)c1ccc2nc(CN3CCC(Oc4ccnc(COc5ccc(Cl)cc5F)c4)CC3)n(Cc3cnco3)c2c1` [Compound 265, 2-{[4-({2-[(4-chloro-2-fluorophenoxy)methyl]pyridin-4-yl}oxy)piperidin-1-yl]methyl}-1-[(1,3-oxazol-5-yl)methyl]-1H-1,3-benzodiazole-6-carboxylic acid], the EC50 is less than 50 nM.
Consider `N#Cc1ccccc1Oc1ccccc1C(=O)N1CCN(Cc2nc3ccc(C(=O)O)cc3n2C[C@@H]2CCO2)CC1` [Compound 4, 2-({4-[2-(2-cyanophenoxy)benzoyl]piperazin-1-yl}methyl)-1-{[(2S)-oxetan-2-yl]methyl}-1H-1,3-benzodiazole-6-carboxylic acid], for which the EC50 was greater than 500 nM.
As for `N#Cc1cc(F)c(OCc2nccc(OC3CCN(Cc4nc5ccc(C(=O)O)cc5n4C[C@@H]4CCO4)CC3)n2)cc1F` [Example 498, (S)-2-((4-((2-((4-Cyano-2,5-difluorophenoxy)methyl)pyrimidin-4-yl)oxy)piperidin-1-yl)methyl)-1-(oxetan-2-ylmethyl)-1H-benzo[d]imidazole-6-carboxylic acid], the EC50 is less than 50 nM.
As for `CCn1cncc1Cn1c(CN2CCN(Cc3ccc(COc4ccc(Cl)cc4Cl)o3)CC2)nc2ccc(C(=O)O)cc21` [Compound 63, 2-{[4-({5-[(2,4-dichlorophenoxy)methyl]furan-2-yl}methyl)piperazin-1-yl]methyl}-1-[(1-ethyl-1H-imidazol-5-yl)methyl]-1H-1,3-benzodiazole-6-carboxylic acid], the EC50 was less than 50 nM.
`Cc1ccc(N(C)c2cccc(CC3CCN(Cc4nc5ccc(C(=O)O)cc5n4C[C@@H]4CCO4)CC3)c2)c(Cl)c1` [Example 116, (S)-2-((4-(3-((2-Chloro-4-methylphenyl)(methyl)amino)benzyl)piperidin-1-yl)methyl)-1-(oxetan-2-ylmethyl)-1H-benzo[d]imidazole-6-carboxylic acid]: the EC50 is less than 50 nM.
As for `CCn1cncc1Cn1c(CN2CCC(Oc3ccnc(COc4ccc(C#N)cc4F)n3)CC2)nc2ccc(C(=O)O)cc21` [Example 261, 2-((4-((2-((4-Cyano-2-fluorophenoxy)methyl)pyrimidin-4-yl)oxy)piperidin-1-yl)methyl)-1-((1-ethyl-1H-imidazol-5-yl)methyl)-1H-benzo[d]imidazole-6-carboxylic acid], the EC50 is less than 50 nM.
As to `CCn1cnnc1Cn1c(CN2CCC(Oc3ccnc(COc4ccc(Cl)cc4F)c3)CC2)nc2ccc(C(=O)O)cc21` [Compound 316], the EC50 is less than 50 nM.
Then `Cc1ccc(Oc2cccc(C(=O)N3CCN(Cc4nc5ccc(C(=O)O)cc5n4C[C@@H]4CCO4)CC3)c2)cc1` [Compound 5, 2-({4-[3-(4-methylphenoxy)benzoyl]piperazin-1-yl}methyl)-1-{[(2S)-oxetan-2-yl]methyl}-1H-1,3-benzodiazole-6-carboxylic acid], with greater than 500 nM.
Consider `CCn1cncc1Cn1c(CN2CCN(C(=O)c3cccc(CN(C)c4ccc(C)cc4Cl)c3)CC2)nc2ccc(C(=O)O)cc21` [Compound 77, 2-{[4-(3-{[(2-chloro-4-methylphenyl)(methyl)amino]methyl}benzoyl)piperazin-1-yl]methyl}-1-[(1-ethyl-1H-imidazol-5-yl)methyl]-1H-1,3-benzodiazole-6-carboxylic acid], for which the EC50 is greater than 500 nM.
On to `O=C(O)c1ccc2nc(CN3CCC(Oc4ccnc(COc5ccc(C(F)(F)F)cc5F)c4)CC3)n(C[C@@H]3CCO3)c2c1` [Compound 356], for which the concentration for a half-maximal effect (EC50) was less than 50 nM.
Take `C[C@H](Oc1ccc(Cl)cc1Cl)c1ccc(C(=O)N2CCN(Cc3nc4ccc(C(=O)O)cc4n3C[C@@H]3CCO3)CC2)o1` (single isomer, unassigned) [Example 96]: the EC50 was greater than 500 nM.
Take `CCn1cncc1Cn1c(CN2CCN(C(=O)c3ccc(COc4ccc(Cl)cc4Cl)o3)CC2)nc2ccc(C(=O)O)cc21` [Compound 47, 2-[(4-{5-[(2,4-dichlorophenoxy)methyl]furan-2-carbonyl}piperazin-1-yl)methyl]-1-[(1-ethyl-1H-imidazol-5-yl)methyl]-1H-1,3-benzodiazole-6-carboxylic acid]: the half-maximal effective concentration (EC50) is less than 50 nM.
Turning to `CCn1cncc1Cn1c(CN2CCC(C#N)(Cc3ccnc(COc4ccc(Cl)cc4Cl)c3)CC2)nc2ccc(C(=O)O)cc21` [Example 189, 2-((4-Cyano-4-((2-((2,4-dichlorophenoxy)methyl)pyridin-4-yl)methyl)piperidin-1-yl)methyl)-1-((1-ethyl-1H-imidazol-5-yl)methyl)-1H-benzo[d]imidazole-6-carboxylic acid], the EC50 was less than 50 nM.
